The values that follow come from patent publication US20200148803A1, “POLYMERIZABLE MULTIFUNCTIONAL ANTIMICROBIAL QUATERNARY AMMONIUM MONOMERS, METHODS OF SYNTHESIS, AND USES THEREOF” (ADA Foundation, priority 2018, published 2020).

Data set [1] relates to human liver cells (HepG2-AD13). Description: Direct contact cytotoxicity, Luciferase Assay System, HepG2-AD13 cells. The note with it: 6 h. The format is cell-based. The procedure: Immortalized human liver cells (hereafter HepG2-AD13) were obtained from collaborators at Aichi Gakuin University, Japan. The cells were maintained (37° C., 5% CO2) in Dulbecco's Modified Eagle's medium supplemented with 10% fetal bovine serum. For experiments, cells were obtained from a subconfluent stock culture.
Direct contact cytotoxicity testing was conducted by exposing cells to two-fold serial dilutions of AMmis2 (Table 8) to approximate the maximum possible exposure, assuming 7% mass fraction in the composite with a maximum of 2% leaching. To account for multiplicity and variable size of restorations, a four-fold greater dilution was also included in the testing. After 6 h, cells were assessed for cell viability using a Luciferase Assay System (Promega Corp., Madison, Wis.). Negative controls were without the AMmis2 and/or cells. Mean+standard error was obtained from five independent replicates tested in quadruplicate.

A short description of data set [2]: Degree of vinyl conversion (DVC) by near infra-red spectra of copolymer beams. It counts as physicochemical. The procedure:
(§1) Experimental resin (UPE) was formulated from the commercially available monomers urethane dimethacrylate (UDMA, 50.91% w/w), polyethylene glycol extended urethane dimethacrylate (PEG-U, 18.18% w/w), and ethyl 2-(hydroxymethyl)acrylate (EHMA, 30.91% w/w). A conventional visible light initiator system comprised of camphorquinone (0.2% w/w) and ethyl-4-N,N-dimethylamino benzoate (4EDMAB, 0.8% w/w) was utilized. […] Copolymer specimens (beams) were prepared by depositing UPE (UPE resin control) and AM-UPE resins into glass molds (2 mm×2 mm×25 mm) and photopolymerizing them with a dental curing light (Triad 2000, Dentsply, Charlotte, N.C., USA) for 2 minutes from two sides. Copolymer specimens (pellets) were prepared by depositing UPE and AM-UPE resins into a stainless-steel mold (1 mm×16 mm), sandwiched between two sheets of Mylar film and two glass slides and photopolymerized in the same manner as the beam samples. Degree of vinyl conversion (DVC) of UPE and AM-UPE resins was determined utilizing beam samples by collecting the near infra-red (NIR) spectra (Nexus 670, ThermoFisher, Madison, Wis., USA) before and 24 h after polymerization and calculating the reduction in absorption band at 6165 cm^−1 corresponding to the vinyl (C═C—H) overtone signal. By maintaining a constant specimen thickness, a need for an invariant internal standard was eliminated. The DVC was calculated as: […]
(§2) where Area(polymer) and Area(monomer) correspond to the areas under 6165 cm^−1 peaks after and before the polymerization, respectively. After DVC analysis, flexural strength (FS) and elastic modulus (E) of beam specimen were determined employing the Universal Testing Machine (Instron 5500R, Instron Corp., Canton, Mass., USA). The load was applied (at cross-head speed of 1 mm/min) to the center of a specimen positioned on a test device with supports 20 mm apart. The FS and E of the specimens (three replicates/experimental group) was calculated as instructed in the ISO4049:2009 document. Changes in hydrophilicity/hydrophobicity of UPE resins due to the introduction of AM monomers were assessed on pellet specimen by sessile drop contact angle (CA) measurements (drop shape analyzer DSA100, Krüss GmbH, Hamburg, Germany). Following the deposition of 4 μL water droplets on the resin pellets, the pellets were imaged after 1 min resting time with a camera at the points of intersection (three-phase contact points) between the drop contour and the projection of the surface (baseline). The CA water values were calculated employing the Krüss Advance software. At least four repetitive measurements were performed in each group. Analysis of variance (ANOVA) and Newman-Keuls multiple paired comparisons (at 95% confidence level) were used to analyze the experimental data as a function of resin composition and establish a statistical significance of differences between the experimental groups (WINKS 7.0.9, TexaSoft, Cedar Hills, Tex., USA).

Data set [3] in a line: Sessile drop water contact angle (CA) on resin pellets. The format is physicochemical. The method, then: as §1, §2
Data set [4] has as its system mouse subcutaneous connective tissue fibroblasts (NCTC clone 929, CCL1). Description: Direct contact cytotoxicity, LIVE/DEAD viability, CCL1 cells. It counts as cell-based.
For data set [5], the system named is human gingival fibroblasts (HGF). Description: Direct contact cytotoxicity, LIVE/DEAD viability, HGF cells. The format is cell-based. The conditions noted are these: for effect of exposure time on HGF live cells, difference of means: 24 h vs 72 h, regardless of concentration; for effect of monomer concentration on HGF cell viability: two-fold serial dilutions, 24 h and 72 h. The method, then: (§3) Immortalized human gingival fibroblasts (HGF) were purchased from Applied Biological Materials, Inc. (Richmond, British Columbia, Canada). […] For experiments, cells were obtained from a subconfluent stock culture.
(§4) Direct contact cytotoxicity testing was conducted as previously described^7, 8. Briefly, cells were exposed to two-fold serial dilutions of AMadh series monomers or AMsil series monomers to approximate the maximum possible exposure, (Table 9). Table 9 illustrates biocompatibility testing using maximum possible monomer exposure (mmol/L), assuming 7% mass fraction in the restorative with a maximum of 2% leaching. To account for multiplicity and variable size of restorations, a two- and four-fold greater dilution was also included in the testing. After 24 and 72 h, cells were assessed for cell viability using the LIVE/DEAD® Viability/Cytotoxicity kit (Life Technologies, Corp., Grand Island, N.Y.). Cellular metabolic activity was subsequently assessed using the CellTiter® AQueous One Solution Reagent (Promega, Corp., Madison, Wis.). Negative controls were without the novel monomer and/or cells. Mean+standard error was obtained from five independent replicates tested in triplicate.

In data set [6] the test system is CCL1 cells. Description: Cellular metabolic activity (CellTiter AQueous One Solution Reagent), CCL1 cells. It counts as cell-based. The note with it: two-fold serial dilutions, 24 h and 72 h.
Data set [7] has as its system human gingival fibroblasts (HGF). Description: Cellular metabolic activity (CellTiter AQueous One Solution Reagent), HGF cells. It counts as cell-based. The conditions noted are these: two-fold serial dilutions, 24 h and 72 h. The procedure: as §3, §4
[8] abbreviates: two-fold serial dilutions, 24 h and 72 h.

For the molecule “2-(methacryloyloxy)-N,N,N-trimethylethan-1-aminium methacrylate [AMmis2]”, in data set [1] (concentrations ≤1.812 mmol/L), the “effect on HepG2-AD13 cells compared to negative control” value is reported as “did not exert a significant effect”. The “relative luminescence units, fold greater than at all lower concentrations” value in data set [1] (concentrations ≥3.623 mmol/L) is recorded as “at least 1.5 fold”.

Turning to `C=C(C)C(=O)OCC[N+](C)(C)CCCCCC(=O)O.[Br-]` [AMadh1, 5-carboxy-N-(2-(methacryloyloxy)ethyl)-N,N-dimethylpentan-1-aminium bromide], the “increase of DVC relative to UPE resin control” value was determined as 2% in data set [2] (10 mass percent in UPE resin) and 3% in data set [2] (20 mass percent in UPE resin). Also, the “effect on hydrophobic-hydrophilic properties of the copolymer” value (“effect … of the copolymer” below) in data set [3] (10 and 20 mass percent in UPE resin) is reported as “did not alter the hydrophobic-hydrophilic properties”. For the same molecule, the “decrease of mean number of live CCL1 cells compared to all lower concentrations” value in data set [4] (10.6 mmol/L, 72 h exposure) is listed as at most 2.5 fold. The “effect of monomer concentration on CCL1 cell viability” value was “insignificant” in data set [4] (24 h exposure, ≤10.6 mmol/L) and “exerted a main effect” in data set [4] (setting [8]). The “dead HGF cells” value in data set [5] (0.08 mmol/L, 24 h) is listed as 102.1 ± 0.9 % control; in data set [5] (0.08 mmol/L, 72 h), 99.5 ± 8.0 % control; in data set [5] (0.17 mmol/L, 24 h), 99.1 ± 1.7 % control; in data set [5] (0.17 mmol/L, 72 h), 98.8 ± 9.1 % control; in data set [5] (0.33 mmol/L, 24 h), 103.5 ± 3.7 % control; in data set [5] (0.33 mmol/L, 72 h), 102.0 ± 12.8 % control. Also, the “dead HGF cells” value in data set [5] (0.66 mmol/L, 24 h) turned out to be 101.5 ± 2.5 % control; in data set [5] (0.66 mmol/L, 72 h), 92.1 ± 8.7 % control; in data set [5] (1.33 mmol/L, 24 h), 110.9 ± 7.1 % control; in data set [5] (1.33 mmol/L, 72 h), 89.5 ± 8.9 % control; in data set [5] (2.65 mmol/L, 24 h), 100.4 ± 1.0 % control; in data set [5] (2.65 mmol/L, 72 h) it was 104.0 ± 17.1 % control. Also, the “dead HGF cells” value was 102.7 ± 2.6 % control in data set [5] (5.3 mmol/L, 24 h); 88.9 ± 6.8 % control in data set [5] (5.3 mmol/L, 72 h); 100.9 ± 1.7 % control in data set [5] (10.6 mmol/L, 24 h); 90.3 ± 11.6 % control in data set [5] (10.6 mmol/L, 72 h). Further, the “live HGF cells” value is 92.8 ± 11.3 % control in data set [5] (0.08 mmol/L, 24 h); 121.6 ± 12.6 % control in data set [5] (0.08 mmol/L, 72 h); 77.3 ± 15.9 % control in data set [5] (0.17 mmol/L, 24 h); 95.1 ± 14.4 % control in data set [5] (0.17 mmol/L, 72 h); 110.4 ± 9.7 % control in data set [5] (0.33 mmol/L, 24 h); 116.8 ± 12.3 % control in data set [5] (0.33 mmol/L, 72 h). The “live HGF cells” value in data set [5] (0.66 mmol/L, 24 h) was 107.4 ± 4.7 % control; in data set [5] (0.66 mmol/L, 72 h), 133.0 ± 8.4 % control; in data set [5] (1.33 mmol/L, 24 h) it was 121.8 ± 8.2 % control; in data set [5] (1.33 mmol/L, 72 h) it was 107.6 ± 6.9 % control; in data set [5] (2.65 mmol/L, 24 h), 111.7 ± 10.0 % control; in data set [5] (2.65 mmol/L, 72 h) it was 107.8 ± 4.0 % control. For the same molecule, the “live HGF cells” value in data set [5] (5.3 mmol/L, 24 h) is reported as 108.8 ± 14.8 % control; in data set [5] (5.3 mmol/L, 72 h), 130.5 ± 9.2 % control; in data set [5] (10.6 mmol/L, 24 h), 92.4 ± 10.8 % control; in data set [5] (10.6 mmol/L, 72 h), 103.7 ± 7.8 % control. Further, the “effect of exposure time on HGF live cells, difference of means” value in data set [5] stood at 10.4%. The “effect of monomer concentration on HGF cell viability” value in data set [5] is given as “monomer concentration affected”. Moreover, the “number of live HGF cells in monomer-treated groups, median of least square means” value in data set [5] (≤10.6 mmol/L, 24 h or 72 h, % control) is given as 111.7%. In data set [6], the “effect of monomer concentration on CCL1 metabolic activity” value is given as “A main effect”. Besides, the “effect on metabolic activity of HGF cells” value in data set [7] is recorded as “Neither AMadh1 concentration nor time of exposure significantly affected the metabolic activity”.

Turning to `C=C(C)C(=O)OCC[N+](C)(C)CCCCCCCCCCC[Si](OC)(OC)OC.[Br-]` [AMsil2, N-(2-(methacryloyloxy)ethyl)-N,N-dimethyl-11-(trimethoxysilyl)undecan-1-aminium bromide], the “DVC compared to UPE resin control” value in data set [2] (10 mass percent in UPE resin) was “did not change the copolymer DVC”. Besides, the “reduction of DVC relative to UPE resin control” value in data set [2] (20 mass percent in UPE resin) is 12.9%. Also, in data set [3] (10 mass % monomer in UPE resin), the CA was found to be 37.4±9.2 ° and the “reduction of CA relative to UPE resin control” value is 38%. The “effect … of the copolymer” value in data set [3] (10 mass percent in UPE resin) is “a shift towards the lower CA values”. Besides, the “effect … of the copolymer” value in data set [3] (20 mass percent in UPE resin) is on record as “maintained the hydrophobic-hydrophilic balance”. Besides, the “effect of monomer concentration on CCL1 cell viability” value in data set [4] (setting [8]) is “exerted a main effect”. For the same molecule, the “percentage of live CCL1 cells, fold lower compared to concentrations ≤0.91 mmol/L” value in data set [4] (≥1.82 mmol/L, 72 h exposure) is reported as 3 to 4 fold. Moreover, the “live CCL1 cells compared to lower concentrations” value in data set [4] (≥3.64 mmol/L, 24 h exposure) is “lower”. In data set [5], the “effect of exposure time on HGF live cells, difference of means” value was about 23% and the “effect of monomer concentration on HGF cell viability” value is given as “exhibited a concentration effect”. Besides, the “reduction of number of live HGFs compared to the control group” value in data set [5] (≥1.82 mmol/L) is given as “more than 3 fold”. For the same molecule, the “effect of monomer concentration on CCL1 metabolic activity” value in data set [6] is listed as “exerted an effect”. Further, the “effect on metabolic activity of HGF cells” value in data set [7] is “exhibited an effect”.
